Measured values published in patent US10407388B2, “Thiourea derivatives as activators of RORα and pharmaceutical composition containing same” (SEOUL NATIONAL UNIVERSITY R & DB FOUNDATION, priority 2011, dated 2019).

The compounds below were run against T1, RORα (Homo sapiens, UniProt P35398) (assay: Transcriptional activity of RORα, RORE-tk-Luc reporter in CV-1 cells (Experimental Example 1)). Settings: JC1 compounds 100 μM, 24 hours; luciferase activity standardized by β-gal; versus control treated only with solvent.
T1 construct: expressed in transfected cells; host or cells: CV-1 cells (ATCC CCL-70)
T1 sequence (P35398 1-523): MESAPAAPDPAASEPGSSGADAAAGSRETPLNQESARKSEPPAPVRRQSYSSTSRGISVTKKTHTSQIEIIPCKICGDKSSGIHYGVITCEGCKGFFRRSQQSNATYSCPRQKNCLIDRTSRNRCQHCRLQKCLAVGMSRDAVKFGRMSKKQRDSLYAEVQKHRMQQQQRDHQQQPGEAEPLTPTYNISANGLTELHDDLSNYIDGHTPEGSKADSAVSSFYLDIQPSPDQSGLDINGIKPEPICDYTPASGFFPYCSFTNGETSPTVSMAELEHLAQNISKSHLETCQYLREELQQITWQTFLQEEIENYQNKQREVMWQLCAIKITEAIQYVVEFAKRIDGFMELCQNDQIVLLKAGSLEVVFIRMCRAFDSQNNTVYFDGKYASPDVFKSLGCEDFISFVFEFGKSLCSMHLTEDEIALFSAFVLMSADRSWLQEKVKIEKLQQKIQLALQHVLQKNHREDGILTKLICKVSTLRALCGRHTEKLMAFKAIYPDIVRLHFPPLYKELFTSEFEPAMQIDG
Assay type: cell-based
Method: CV-1 cells (CCL-70) were purchased from American Type Culture Collection (ATCC). The CV-1 cells (4×10^4 cells/well) were seeded on a 24-well culture plate and cultured overnight in a Dulbecco's Modified Eagle's Medium (DMEM) containing 10% fetal bovine serum (FBS). The CV-1 cells were maintained at 37° C. in a humidification thermostat containing 5% CO2 and 95% air. After culturing, the cells were transformed with RORE-tk-Luc reporter plasmid (100 ng) and ROR expression vector (5 ng) using calcium phosphate. […]

Fold Activation	SMILES
0.9	CNC(=S)NCc1ccc(F)cc1F [Compound 32, 1-(2,4-difluoro-benzyl)-3-methyl-thiourea]
2.9	CNC(=S)NCc1ccc(OC)cc1OC [Compound 23, 1-(2,4-dimethoxy-benzyl)-3-methyl-thiourea]
0.8	CNC(=S)NCc1ccccc1Cl [Compound 34, 1-(2-chloro-benzyl)-3-methyl-thiourea]
3.4	CNC(=S)NCc1ccccc1Br [Compound 1, 1-(2-bromo-benzyl)-3-methyl-thiourea]
1.2	CCOc1cc(C=Cc2ccccc2)ccc1CNC(=S)NC [Compound 47, 1-(2-ethoxy-4-styryl-benzyl)-3-methyl-thiourea]
1.1	CNC(=S)NCc1ccc(OC)cc1OC [Compound 5, 1-(2,4-dimethoxy-benzyl)-3-methyl-thiourea]
2.5	CNC(=S)NCc1ccc(OC)c(OCc2ccccc2)c1 [Compound 41, 1-(3-benzyloxy-4-methoxy-benzyl)-3-methyl-thiourea]
0.7	CNC(=S)NCc1ccccc1C [Compound 7, 1-(2-methyl-benzyl)-3-methyl-thiourea]
3.4	CNC(=S)NCc1ccc(OC)cc1 [Compound 4, 1-(4-methoxy-benzyl)-3-methyl-thiourea]
2.1	CNC(=S)NCc1ccccc1[N+](=O)[O-] [Compound 18, 1-(2-nitro-benzyl)-3-methyl-thiourea]
2.5	CNC(=S)NCc1ccc(F)cc1 [Compound 30, 1-(4-fluoro-benzyl)-3-methyl-thiourea]
1.8	C=CCOc1ccccc1CNC(=S)NC [Compound 39, 1-(2-allyloxy-benzyl)-3-methyl-thiourea]
2.1	CNC(=S)NCc1ccc(Oc2ccc(OC)cc2)cc1 [Compound 53, 1-[4-(4-methoxy-phenoxy)-benzyl]-3-methyl-thiourea]
0.2	CNC(=S)NCc1ccc(-c2ccccc2)cc1 [Compound 24, 1-(4-phenyl-benzyl)-3-methyl-thiourea]
0.7	CNC(=S)NCc1cccc(Cl)c1Cl [Compound 33, 1-(2,3-dichloro-benzyl)-3-methyl-thiourea]
1.4	CCOc1ccccc1CNC(=S)NC [Compound 16, 1-(2-ethoxy-benzyl)-3-methyl-thiourea]
1.3	CNC(=S)NCc1ccccc1Oc1ccccc1 [Compound 51, 1-methyl-3-(2-phenoxy-benzyl)-thiourea]
1.5	CNC(=S)NCc1ccc(Oc2ccc(F)cc2)cc1 [Compound 52, 1-[4-(4-fluoro-phenoxy)-benzyl]-3-methyl-thiourea]
1.5	CNC(=S)NCc1cccc(OC)c1OC [Compound 15, 1-(2,3-dimethoxy-benzyl)-3-methyl-thiourea]

The next lines start with the compound.

SMILES	Fold Activation
CNC(=S)NCc1ccc2c(c1)OCO2 [Compound 8, 1-(benzo[1,3]dioxyl-5-methyl)-3-methyl-thiourea]	1.7
CNC(=S)NCc1ccc(C)cc1 [Compound 14, 1-(4-methyl-benzyl)-3-methyl-thiourea]	3.9
CCOc1cc(-c2ccc(C(C)(C)C)cc2)ccc1CNC(N)=S [Compound 45, (4′-tert-butyl-3-ethoxy-biphenyl-4-methyl)-thiourea]	1.0
CNC(=S)NCc1ccc(O)c(O)c1 [Compound 22, 1-(3,4-dihydroxy-benzyl)-3-methyl-thiourea]	0.6
CNC(=S)NCc1ccc(Br)cc1 [Compound 2, 1-(4-bromo-benzyl)-3-methyl-thiourea]	1.4
CCOc1cc(-c2ccccc2)ccc1CNC(=S)NC [Compound 44, 1-(3-ethoxy-biphenyl-4-methyl)-3-methyl-thiourea]	1.2
CNC(=S)NCc1cc(OC)c(OC)c(OC)c1 [Compound 19, 1-(3,4,5-trimethoxy-benzyl)-3-methyl-thiourea]	2.2
CNC(=S)NCc1ccc(C(F)(F)F)cc1 [Compound 11, 1-(4-trifluoromethyl-benzyl)-3-methyl-thiourea]	2.3
CNC(=S)NCc1ccc(Cl)c(Cl)c1 [Compound 27, 1-(3,4-dichloro-benzyl)-3-methyl-thiourea]	1.0
CNC(=S)NCc1ccc(F)c(F)c1 [Compound 31, 1-(3,4-difluoro-benzyl)-3-methyl-thiourea]	0.8
CNC(=S)NCc1ccc(Cl)cc1Cl [Compound 21, 1-(2,4-dichloro-benzyl)-3-methyl-thiourea]	0.6
CNC(=S)NCc1ccc(Cl)cc1 [Compound 3, 1-(4-chloro-benzyl)-3-methyl-thiourea]	2.6
CNC(=S)NCc1ccc(N(C)C)cc1 [Compound 10, 1-(4-dimethylamino-benzyl)-3-methyl-thiourea]	1.3
CNC(=S)NCc1ccc(C(C)(C)C)cc1 [Compound 13, 1-(4-t-butyl-benzyl)-3-methyl-thiourea]	0.9
CNC(=S)N[C@H](C)c1ccc(OC)cc1 [Compound 35, R-(+)-1-[1-(4-methoxy-phenyl)-ethyl]-3-methyl-thiourea]	0.7
CNC(=S)NCc1ccc(OC)c(O)c1 [Compound 25, 1-(3-hydroxy-4-methoxy-benzyl)-3-methyl-thiourea]	1.9
CNC(=S)NCc1ccc2ccccc2c1 [Compound 43, 1-methyl-3-naphthalene-2-methyl-thiourea]	0.7
CNC(=S)NCc1cc(OC)cc(OC)c1 [Compound 20, 1-(3,5-dimethoxy-benzyl)-3-methyl-thiourea]	1.0
CNC(=S)N[C@@H](C)c1ccc(OC)cc1 [Compound 36, S-(−)-1-[1-(4-methoxy-phenyl)-ethyl]-3-methyl-thiourea]	0.6
CNC(=S)NCc1cccc([N+](=O)[O-])c1 [Compound 17, 1-(3-nitro-benzyl)-3-methyl-thiourea]	0.9
CNC(=S)NCc1cccc(F)c1 [Compound 29, 1-(3-fluoro-benzyl)-3-methyl-thiourea]	1.1
CNC(=S)NCc1cccc(Cl)c1 [Compound 28, 1-(3-chloro-benzyl)-3-methyl-thiourea]	0.7
CNC(=S)NCc1ccc([N+](=O)[O-])cc1 [Compound 12, 1-(4-nitro-benzyl)-3-methyl-thiourea]	1.6
CNC(=S)NCc1cccc(C)c1 [Compound 6, 1-(3-methyl-benzyl)-3-methyl-thiourea]	1.1
CNC(=S)NCc1ccc(O)c(OC)c1 [Compound 9, 1-(4-hydroxy-3-methoxy-benzyl)-3-methyl-thiourea]	1.4
CCOc1cc(-c2ccc(C(F)(F)F)cc2)ccc1CNC(=S)NC [Compound 48, 1-(3-ethoxy-4′-trifluoromethyl-biphenyl-4-methyl)-3-methyl-thiourea]	1.0
